What was measured:
[1] = Metabolic study in mice (radiochromatogram of ex-vivo mouse blood); parameters: species or system Swiss albino mice; settings: mouse blood 5 min after injection
Description: A bolus containing the radioligand in normal saline (100-150 μL, =3 nmol, 200-500 μCi) was injected in the tail vein of Swiss albino mice. Animals were kept for 5 min in a cage with access to water and were then euthanized promptly by cardiac puncture while under a mild ether anesthesia. Blood (500-900 μL) was collected from the heart with a syringe and transferred in a pre-chilled Eppendorf tube on ice.
Blood was centrifuged to remove blood cells (10 min, 2000 g/4° C.). The plasma was collected, mixed with acetonitrile (MeCN) in a 1/1 v/v ratio and centrifuged again (10 min, 15000 g/4° C.). Supernatants were concentrated to a small volume (gentle N2-flux at 40° C.), diluted with saline (z 400 μL) and filtered through a Millex GV filter (0.22 μm).
Aliquots of plasma samples (prepared as described above) were loaded on a Symmetry Shield RPM column which was eluted at a flow rate of 1.0 mL/min with the following gradient: 100% A to 90% A in 10 min and from 90% A to 60% for the next 60 min (A=0.1% aqueous TFA (v/v) and B=MeCN). Elution of radiocomponents was monitored by a gamma detector. For ^99mTc-radiopeptides, ITLC-SG analysis was performed in parallel using acetone as the eluent to detect traces of TcO4^− release (TcO4^− Rf=1.0).

PC-3 tumors (hGRPR+) = assay: Biodistribution in GRPR+ tumor bearing mice; type: in vivo, female SCID mice; settings: for uptake in PC-3 tumor: iv, 10 pmol total peptide
Description: A 150 μL bolus containing a suspension of 1.5×10^7 freshly harvested human PC-3 cells in normal saline was subcutaneously injected in the flanks of female SCID mice. The animals were kept under aseptic conditions and 2-3 weeks later developed well-palpable tumors at the inoculation site (80-150 mg).
On the day of the experiment, the selected radiopeptide was injected in the tail vein of tumor-bearing mice as a 100 μL bolus (1-2 μCi, 10 pmol total peptide; in saline/EtOH 9/1 v/v). Animals were sacrificed in groups of four under a mild ether anesthesia by cardiac puncture at predetermined time points pi (postinjection). Additional sets of three to four animals were co-injected with excess [Tyr^4]BBN (≈40 nmol) along with test radiopeptide and were sacrificed at 4 h pi (blocked animals). Samples of blood and tissues of interest were immediately collected, weighed and measured for radioactivity in a γ-counter. Stomach and intestines were not emptied of their contents, but measured as collected. Biodistribution data were calculated as percent injected dose per gram tissue (% ID/g) using the Microsoft Excel program with the aid of suitable standards of the injected dose.

malignant lesions = settings: cited from earlier work
[2] = test system: human prostate cancer PC-3 xenografts; settings: cited from earlier work

In the case of CC(C)CC(CC(C)C)NC(=O)[C@H](Cc1cnc[nH]1)NC(=O)CNC(=O)[C@@H](NC(=O)[C@H](C)NC(=O)[C@H](Cc1c[nH]c2ccccc12)NC(=O)[C@H](CCC(N)=O)NC(=O)[C@@H](Cc1ccccc1)NC(=O)COCC(=O)Nc1ccc(CNC(=O)CN2CCN(CC(=O)O)CCN(CC(=O)O)CCN(CC(=O)O)CC2)cc1)C(C)C [[111In]NeoBOMB-1] [^111In-DOTA-(p-aminobenzylamine-diglycolic acid)-[DPhe^6,His^12-CO—NH—CH[(CH2CH(CH3)2)2,des-Leu^13,des-Met^14]BBN(6-14), metal not drawn], the “percentage of parent peptide remaining intact” value [1] was greater than 91%, the “tumor uptake after co-injection of excess [Tyr4]BBN (in vivo receptor blockade)” value (PC-3 tumors (hGRPR+); 4 h pi, excess [Tyr4]BBN (100 μg)) was “significantly reduced” and the “uptake in PC-3 tumor” value (PC-3 tumors (hGRPR+); 4 h pi) was 28.6±6.0 % ID/g. The “uptake in PC-3 tumor” value (PC-3 tumors (hGRPR+); 24 h pi) was 25.9±6.6 % ID/g.

For CC(C)CC(CC(C)C)NC(=O)[C@H](Cc1cnc[nH]1)NC(=O)CNC(=O)[C@@H](NC(=O)[C@H](C)NC(=O)[C@H](Cc1c[nH]c2ccccc12)NC(=O)[C@H](CCC(N)=O)NC(=O)[C@@H](Cc1ccccc1)NC(=O)COCC(=O)Nc1ccc(CNC(=O)C2C[N]3CC[NH][Tc]34(=[O])(=[O])[NH]CC[N]4C2)cc1)C(C)C (some centres unmarked) [[99mTc]NeoBOMB-2], the “percentage of parent peptide remaining intact” value [1] was greater than 88%, the “uptake in PC-3 tumor” value (PC-3 tumors (hGRPR+); 1 h pi) was roughly 30 % ID/g and the “uptake in PC-3 tumor” value (PC-3 tumors (hGRPR+); 4 h pi) was roughly 30 % ID/g. For the same molecule, the “uptake in PC-3 tumor” value (PC-3 tumors (hGRPR+); 24 h pi) was greater than 25 % ID/g.

For CC(C)CC(CC(C)C)NC(=O)[C@H](Cc1cnc[nH]1)NC(=O)CNC(=O)[C@@H](NC(=O)[C@H](C)NC(=O)[C@H](Cc1c[nH]c2ccccc12)NC(=O)[C@H](CCC(N)=O)NC(=O)[C@@H](Cc1ccccc1)NC(=O)COCC(=O)Nc1ccc(CNC(=O)CN2CCN(CC(=O)O)CCN(CC(=O)O)CCN(CC(=O)O)CC2)cc1)C(C)C [[67Ga]NeoBOMB-1] [^67Ga-DOTA-(p-aminobenzylamine-diglycolic acid)-[DPhe^6,His^12-CO—NH—CH[(CH2CH(CH3)2]2,des-Leu^3, des-Met^4]BBN(6-14), metal not drawn], the “percentage of parent peptide remaining intact” value [1] was greater than 97%.

In the case of “[^99mTc—N4′]DPhe-Gln-Trp-Ala-Val-Gly-His-Leu-NHEt [[99mTc]Demobesin 1]”, the “body and pancreas clearance” value (malignant lesions; human, in vivo) is given as “rapid”, the in vivo stability (malignant lesions; human, in vivo) is given as “rather good” and the tolerability (malignant lesions; human, in vivo) is given as “excellent tolerability”. For the same molecule, the “retention in malignant lesions compared to radiolabeled BBN-like agonists” value (malignant lesions; humans) was “insufficient retention”, the “tumor accumulation versus bombesin-based agonists ([99mTc]Demobesin 3-6)” value ([2]; mice bearing PC-3 xenografts) was “significantly higher tumor accumulation” and the “clearance from the body of mice and the pancreas” value ([2]; mouse, in vivo) was “cleared very rapidly”.

For CC(C)CC(CC(C)C)NC(=O)[C@H](Cc1cnc[nH]1)NC(=O)CNC(=O)[C@@H](NC(=O)[C@H](C)NC(=O)[C@H](Cc1c[nH]c2ccccc12)NC(=O)[C@H](CCC(N)=O)NC(=O)[C@@H](Cc1ccccc1)NC(=O)COCC(=O)Nc1ccc(CNC(=O)CN2CCN(CC(=O)O)CCN(CC(=O)O)CCN(CC(=O)O)CC2)cc1)C(C)C [[177Lu]NeoBOMB-1] [^177Lu-DOTA-(p-aminobenzylamine-diglycolic acid)-[DPhe^6,His^12-CO—NH—CH[(CH2CH(CH3)2]2,des-Leu^13,des-Met^14]BBN(6-14), metal not drawn], the “percentage of parent peptide remaining intact” value [1] was greater than 92% and the “tumor-to-pancreas ratios over time” value (PC-3 tumors (hGRPR+); 4, 24 and 72 h pi, especially at 72 h pi) was “increasingly higher tumor-to-pancreas ratios”.

From patent US11083805B2, “Radiolabeled GRPR-antagonists for diagnostic imaging and treatment of GRPR-positive cancer” (Advanced Accelerator Applications International SA, priority 2012, dated 2021)
